Our source for the IC50 values is US20080261994A1, “CYCLOPROPANE COMPOUNDS AND PHARMACEUTICAL USE THEREOF” (Japan Tobacco Inc., priority 2003, published 2008).

The term IC50 denotes the concentration that inhibits the measured activity by half.

Format in all cases: biochemical
In one test the target is T1, aggrecanase-1 (Homo sapiens, UniProt O75173).
T1 sequence (O75173 213-837): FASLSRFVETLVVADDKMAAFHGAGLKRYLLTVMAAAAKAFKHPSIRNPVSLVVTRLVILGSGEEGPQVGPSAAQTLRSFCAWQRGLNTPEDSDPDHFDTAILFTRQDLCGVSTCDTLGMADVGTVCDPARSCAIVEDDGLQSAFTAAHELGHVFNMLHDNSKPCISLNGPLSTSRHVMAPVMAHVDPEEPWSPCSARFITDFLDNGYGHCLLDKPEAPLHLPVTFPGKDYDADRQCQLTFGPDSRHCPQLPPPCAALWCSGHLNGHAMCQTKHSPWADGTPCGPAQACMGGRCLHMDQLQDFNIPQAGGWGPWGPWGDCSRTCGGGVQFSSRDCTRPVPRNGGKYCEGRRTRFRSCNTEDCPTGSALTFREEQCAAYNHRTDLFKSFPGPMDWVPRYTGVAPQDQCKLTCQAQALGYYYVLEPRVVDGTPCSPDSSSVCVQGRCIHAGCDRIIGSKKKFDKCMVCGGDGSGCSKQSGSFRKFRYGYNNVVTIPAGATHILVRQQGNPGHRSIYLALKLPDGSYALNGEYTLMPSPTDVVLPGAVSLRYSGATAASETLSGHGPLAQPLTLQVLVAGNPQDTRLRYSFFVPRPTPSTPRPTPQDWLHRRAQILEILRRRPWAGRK
In words: Aggrecanase-1 inhibitory action (Particle Assay, GAG release from aggrecan-containing polyacrylamide particles). The note with it: Experimental Example 1; read-out: IC50 AG1. In short, it runs like this: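 Enzyme and compound incubated with aggrecan-containing polyacrylamide particles in Tris-HCl buffer at 37° C for 15 h. Released GAG in supernatant measured with 1,9-dimethylmethylene blue at 595 nm against chondroitin sulfate standard; % inhibition from enzyme-free and inhibitor-free wells, reported as TC50 (μM).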

The target in a further test is T2, MMP-1 (Homo sapiens, UniProt P03956).
T2 sequence (P03956 100-469): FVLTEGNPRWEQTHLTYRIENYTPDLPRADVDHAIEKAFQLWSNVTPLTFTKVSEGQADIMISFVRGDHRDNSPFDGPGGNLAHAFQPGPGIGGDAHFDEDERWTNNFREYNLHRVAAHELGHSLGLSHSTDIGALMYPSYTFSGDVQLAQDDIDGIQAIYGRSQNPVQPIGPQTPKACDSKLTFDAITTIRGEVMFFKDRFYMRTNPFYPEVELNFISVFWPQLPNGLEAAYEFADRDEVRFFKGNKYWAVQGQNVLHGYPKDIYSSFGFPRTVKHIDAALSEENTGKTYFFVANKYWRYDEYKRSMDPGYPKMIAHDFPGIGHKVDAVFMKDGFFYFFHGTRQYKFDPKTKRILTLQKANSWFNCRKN
In words: MMP-1 inhibitory action (Type I collagen Activity Measurement kit, FITC-labeled collagen type I). Particulars: Experimental Example 2; read-out: IC50 MMP1.

Another test concerns the target T3, Recombinant Human MMP-13 (Homo sapiens, UniProt P45452).
T3 construct: purchased R&D systems 511-MM
In words: MMP-13 inhibitory activity (MMP-13 specific fluorescent substrate with quencher). Particulars: Experimental Example 3; read-out: IC50 MMP13. An outline of the steps: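 Recombinant human MMP-13 with test compound, reaction started with quenched fluorogenic peptide 7-MCA-Pro-CHA-Gly-NVal-His-Ala-DPA in Tris-HCl buffer, 1 h at 25 °C, stopped with acetic acid. Fluorescence at Ex 325/Em 405 nm; % inhibition versus enzyme-free and inhibitor-free wells, reported as IC50 (μM).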

Regarding `O=C(NCCO)OCC1(c2ccccc2)CC1(NS(=O)(=O)c1ccc(-c2cc(C(F)(F)F)on2)s1)C(=O)O` (stereo not drawn) [Example 2-333], the IC50 was below 1 µM at aggrecanase-1, at least 1 µM at MMP-1 and below 1 µM on Recombinant Human MMP-13.

With `CN1CCN(C(=O)OCC2(c3ccccc3)CC2(NS(=O)(=O)c2ccc(-c3cc(C(F)(F)F)on3)s2)C(=O)O)CC1` (stereo not drawn) [Example 2-334], the half-inhibitory concentration (IC50) at aggrecanase-1 was below 1 µM; at MMP-1, at least 1 µM; at Recombinant Human MMP-13, below 1 µM.

Take `NC(=O)OCC1(c2ccccc2)CC1(NS(=O)(=O)c1ccc(-c2cc(C(F)(F)F)on2)s1)C(=O)O` (stereo not drawn) [Example 2-335]: the IC50 is below 1 µM on aggrecanase-1, at least 1 µM on MMP-1 and below 1 µM at Recombinant Human MMP-13.

As for `COCCN(C)CC1(c2ccccc2)CC1(NS(=O)(=O)c1ccc(-c2cc(C(F)(F)F)on2)s1)C(=O)O` (stereo not drawn) [Example 2-336], the IC50 was at least 1 µM on aggrecanase-1, at least 10 µM on MMP-1 and at least 1 µM at Recombinant Human MMP-13.

Take `CN(C)CCSCC1(c2ccccc2)CC1(NS(=O)(=O)c1ccc(-c2ccc(Cl)cc2)s1)C(=O)O` (stereo not drawn) [Example 2-337]: the IC50 is below 1 µM at aggrecanase-1, at least 10 µM on MMP-1 and below 1 µM on Recombinant Human MMP-13.

For the compound `CC1[C@H](c2ccccc2)[C@]1(NS(=O)(=O)c1ccc(-c2cc(C(F)(F)F)no2)s1)C(=O)O` (stereo partly drawn) [Example 2-338], the results for the IC50 at aggrecanase-1, at MMP-1 and at Recombinant Human MMP-13 were below 0.1 µM, at least 1 µM and below 1 µM, respectively.

For the compound `CC1(c2ccc(F)cc2)CC1(NS(=O)(=O)c1ccc(-c2cc(C(F)(F)F)on2)s1)C(=O)O` (stereo not drawn) [Example 2-339], the values for the IC50 at aggrecanase-1, on MMP-1 and on Recombinant Human MMP-13 were below 0.1 µM, at least 1 µM and below 1 µM, respectively.

As for `CC1(c2ccc(F)cc2)CC1(NS(=O)(=O)c1ccc(-c2cc(C(F)(F)F)on2)s1)C(=O)O` (stereo not drawn) [Example 2-340], the IC50 is below 1 µM on aggrecanase-1, at least 10 µM at MMP-1 and at least 1 µM at Recombinant Human MMP-13.

Take `O=C(O)C1(NS(=O)(=O)c2ccc(-c3ccc(Cl)cc3)s2)CC1(CN1CCOCC1)c1ccccc1` (stereo not drawn) [Example 2-341]: the IC50 at aggrecanase-1 was below 0.1 µM; on MMP-1, at least 10 µM; at Recombinant Human MMP-13, at least 1 µM.

In the case of `CN1CCN(CC2(c3ccccc3)CC2(NS(=O)(=O)c2ccc(-c3cc(C(F)(F)F)on3)s2)C(=O)O)CC1` (stereo not drawn) [Example 2-342], the figures for the IC50 at aggrecanase-1, at MMP-1 and on Recombinant Human MMP-13 were below 1 µM, at least 1 µM and at least 1 µM, respectively.

As for `CCN(CC)CC1(c2ccccc2)CC1(NS(=O)(=O)c1ccc(-c2cc(C(F)(F)F)on2)s1)C(=O)O` (stereo not drawn) [Example 2-343], the IC50 on aggrecanase-1 is at least 1 µM; on MMP-1, at least 10 µM; at Recombinant Human MMP-13, at least 1 µM.

With `C[C@@H]1CN(CC2(c3ccccc3)CC2(NS(=O)(=O)c2ccc(-c3ccc(Cl)cc3)s2)C(=O)O)C[C@H](C)O1` (stereo partly drawn) [Example 2-344], the IC50 is below 0.1 µM on aggrecanase-1, at least 10 µM on MMP-1 and below 1 µM on Recombinant Human MMP-13.

Take `O=C(O)C1(NS(=O)(=O)c2ccc(-c3ccc(Cl)cc3)s2)CC1(CSCCO)c1ccccc1` (stereo not drawn) [Example 2-345]: the results for the IC50 at aggrecanase-1, on MMP-1 and on Recombinant Human MMP-13 were below 0.1 µM, at least 10 µM and below 1 µM, respectively.

For `O=C(O)C1(NS(=O)(=O)c2ccc(-c3ccc(Cl)cc3)s2)CC1(Cn1ccnc1)c1ccccc1` (stereo not drawn) [Example 2-346], the IC50 is below 1 µM on aggrecanase-1, at least 10 µM on MMP-1 and below 1 µM at Recombinant Human MMP-13.

As to `O=C(O)C1(NS(=O)(=O)c2ccc(-c3ccc(Cl)cc3)s2)CC1(COCCO)c1ccccc1` (stereo not drawn) [Example 2-347], the IC50 at aggrecanase-1 is below 0.1 µM; on MMP-1, at least 10 µM; on Recombinant Human MMP-13, below 1 µM.

Take `CC(C)S(=O)(=O)CC1(c2ccccc2)CC1(NS(=O)(=O)c1ccc(-c2ccc(Cl)cc2)s1)C(=O)O` (stereo not drawn) [Example 2-348]: the IC50 was below 1 µM at aggrecanase-1, at least 10 µM on MMP-1 and below 1 µM on Recombinant Human MMP-13.

For `CC(C)SCC1(c2ccccc2)CC1(NS(=O)(=O)c1ccc(-c2ccc(Cl)cc2)s1)C(=O)O` (stereo not drawn) [Example 2-349], the IC50 on aggrecanase-1 was below 0.1 µM; at MMP-1, at least 10 µM; at Recombinant Human MMP-13, below 1 µM.

With `O=C(O)C1(NS(=O)(=O)c2ccc(-c3ccc(Cl)cc3)s2)C2CCc3ccccc3C21` (stereo not drawn) [Example 2-350], the IC50 at aggrecanase-1 is below 1 µM; on MMP-1 it was at least 1 µM; at Recombinant Human MMP-13, below 0.1 µM.

Turning to `O=C(O)C1(NS(=O)(=O)c2ccc(-c3cc(C(F)(F)F)on3)s2)C2CCc3ccccc3C21` (stereo not drawn) [Example 2-351], the IC50 is below 0.1 µM at aggrecanase-1, below 1 µM on MMP-1 and below 0.1 µM on Recombinant Human MMP-13.

For `CCOC(=O)CSCC1(c2ccccc2)CC1(NS(=O)(=O)c1ccc(-c2ccc(Cl)cc2)s1)C(=O)O` (stereo not drawn) [Example 2-352], the IC50 on aggrecanase-1 was below 0.1 µM; on MMP-1, at least 1 µM; at Recombinant Human MMP-13 it was below 0.1 µM.

With `CC1[C@H](c2ccccc2)[C@]1(NS(=O)(=O)c1ccc(-c2cc(C(F)F)on2)s1)C(=O)O` (stereo partly drawn) [Example 2-353], the IC50 on aggrecanase-1 was below 0.1 µM; on MMP-1 it was below 1 µM; on Recombinant Human MMP-13, below 0.1 µM.

Turning to `CC1[C@H](c2ccccc2)[C@]1(NS(=O)(=O)c1ccc(-c2cc(C(F)F)no2)s1)C(=O)O` (stereo partly drawn) [Example 2-354], the IC50 was below 0.1 µM on aggrecanase-1, at least 1 µM on MMP-1 and below 1 µM at Recombinant Human MMP-13.

For `O=C(O)C1(NS(=O)(=O)c2ccc(OCc3ccc(Cl)cc3Cl)cc2)C2CCc3ccccc3C21` (stereo not drawn) [Example 2-355], the IC50 at aggrecanase-1 is at least 1 µM; on MMP-1 it was at least 1 µM; on Recombinant Human MMP-13 it was below 1 µM.

In the case of `O=C(O)C1(NS(=O)(=O)c2ccc(-c3ccc(Cl)cc3)s2)CC1(COCc1ccccc1)c1ccccc1` (stereo not drawn) [Example 2-356], the IC50 at aggrecanase-1, on MMP-1 and at Recombinant Human MMP-13 was below 1 µM in each case.

Take `CN(C)C(=O)CSCC1(c2ccccc2)CC1(NS(=O)(=O)c1ccc(-c2ccc(Cl)cc2)s1)C(=O)O` (stereo not drawn) [Example 2-357]: the values for the IC50 on aggrecanase-1, on MMP-1 and at Recombinant Human MMP-13 were below 0.1 µM, at least 1 µM and below 0.1 µM, respectively.

For the compound `O=C(O)CSCC1(c2ccccc2)CC1(NS(=O)(=O)c1ccc(-c2ccc(Cl)cc2)s1)C(=O)O` (stereo not drawn) [Example 2-358], the figures for the IC50 on aggrecanase-1, at MMP-1 and on Recombinant Human MMP-13 were below 0.1 µM, at least 1 µM and below 1 µM, respectively.

On to `O=C(CSCC1(c2ccccc2)CC1(NS(=O)(=O)c1ccc(-c2ccc(Cl)cc2)s1)C(=O)O)N1CCOCC1` (stereo not drawn) [Example 2-359], for which the IC50 at aggrecanase-1 is below 1 µM; at MMP-1 it was at least 1 µM; at Recombinant Human MMP-13, below 0.1 µM.

With `O=C(NO)C1(NS(=O)(=O)c2ccc(OCc3ccc(Cl)cc3Cl)cc2)C2CCc3ccccc3C21` (stereo not drawn) [Example 2-360], the IC50 at aggrecanase-1 was below 0.1 µM; on MMP-1, at least 10 µM; on Recombinant Human MMP-13, below 1 µM.

`NCC1(c2ccccc2)CC1(NS(=O)(=O)c1ccc(-c2ccc(Cl)cc2)s1)C(=O)O` (stereo not drawn) [Example 2-361]: the IC50 was at least 1 µM on aggrecanase-1, at least 10 µM at MMP-1 and at least 1 µM on Recombinant Human MMP-13.

`O=C1OCCN1CC1(c2ccccc2)CC1(NS(=O)(=O)c1ccc(-c2ccc(Cl)cc2)s1)C(=O)O` (stereo not drawn) [Example 2-362]: the IC50 was below 1 µM on aggrecanase-1, at least 10 µM on MMP-1 and below 0.1 µM on Recombinant Human MMP-13.

Consider `O=C(O)C1(NS(=O)(=O)c2ccc(OCc3ccc(Cl)cc3Cl)cc2)C2CCCc3ccccc3C21` (stereo not drawn) [Example 2-363], for which the values for the IC50 at aggrecanase-1, on MMP-1 and on Recombinant Human MMP-13 were at least 1 µM, at least 10 µM and below 1 µM, respectively.

For `O=C(NO)C1(NS(=O)(=O)c2ccc(-c3ccc(Cl)cc3)s2)C2CCc3ccccc3C21` (stereo not drawn) [Example 2-364], the IC50 is below 1 µM on aggrecanase-1, below 1 µM at MMP-1 and below 0.1 µM at Recombinant Human MMP-13.

On to `O=C(O)C1(NS(=O)(=O)c2ccc(-c3ccc(Cl)cn3)s2)C2CCCc3ccccc3C21` (stereo not drawn) [Example 2-365], for which the IC50 was below 0.1 µM on aggrecanase-1, below 1 µM at MMP-1 and below 0.1 µM on Recombinant Human MMP-13.

For the compound `CC1[C@H](c2ccccc2)[C@]1(NS(=O)(=O)c1ccc(-c2ccc(Cl)cn2)s1)C(=O)O` (stereo partly drawn) [Example 2-366], the half-maximal inhibitory concentration (IC50) was below 0.1 µM at aggrecanase-1, below 1 µM on MMP-1 and below 0.1 µM at Recombinant Human MMP-13.
